Data reported in patent US20250170090A1, “METHOD FOR PREVENTING OR TREATING DISEASE OR DISORDER ASSOCIATED WITH ANTINEOPLASTIC AGENT” (ONQUALITY PHARMACEUTICALS CHINA LTD., priority 2022, published 2025).

What was measured:
HUVEC cells = test: CCK-8 cell viability: alleviation of proliferative toxicity of anti-tumor agents on HUVEC cells (Tables 7-1, 7-2); format: cell-based
Experimental: (§1) The cultured HUVEC cells were digested the suspended, counted, and seed into a 96-well plate with 5,000-10,000 cells per well. The wells are divided into the following groups: blank control group, anti-tumor agent group, anti-tumor agent+NO-NSAID group, anti-tumor agent solvent group, NO-NSAID control group. Wherein each well of each group contained a basic medium, and the final liquid volume contained in each well was about 100 μL. The grouping situation was as follows: • 1) Blank control group: no solution was added except normally replacing the medium; • 2) Anti-tumor agent group: added the anti-tumor agent solution (the final concentration was shown in Table 7-1 and Table 7-2, the solvent of the anti-tumor agent solution was DMSO); • 3) Anti-tumor agent+NO-NSAID group: added the anti-tumor agent solution and the NO-NSAID solution (the final concentrations of anti-tumor agent and NO-NSAID were shown in Table 7-1 and Table 7-2, and according to the solubility of NO-NSAID, the solvent of NO-NSAID solution was selected as ethanol or sterile water, and minor volume differences in each group were adjusted by added the corresponding solvent); • 4) Anti-tumor agent solvent group: an equal volume of DMSO as contained in the corresponding anti-tumor agent solution in Group 2) was added; • 5) NO-NSAID control group: the same volume and type of solvent (for example, ethanol or sterile water) corresponding to the NO-NSAID contained in group 3) was added.
(§2) The anti-tumor agent solvent group was not involved in data processing and was only used as a reference for evaluating experimental system error. The NO-NSAID solvent control group was used for data correction to eliminate the influence of the solvent on the results.
(§3) After culturing for 24-48 hours, the Cell Counting Kit-8 (CCK-8) detection kit (C0037, Shanghai Beyotime Biotechnology Co., Ltd., Beyotime Biotechnology) was used to determine the cell viability. This allows for the calculation of the proliferative toxicity of anti-tumor agent on cell and the mitigating effect of NO-NSAID on proliferative toxicity. The results were statistically analyzed and plotted using GraphPad Prism 6.0 software and t test.

[1] = tested on: gastric epithelial cells (GES-1); test: CCK-8 cell viability: alleviation of proliferative toxicity of anti-tumor agents on GES-1 (Table 8-3); format: cell-based, human; conditions: NO-NSAID 100 μM
Experimental: (§4) Experiments were conducted using various epithelial cells: Examples 47-51 used human immortalized keratinocytes (HaCaT) with corresponding results in Table 8-1; Examples 52-56 used human oral keratinocytes (HOK) with results in Table 8-2; Examples 57-61 used gastric epithelial cells (GES-1) with results in Table 8-3; Examples 62-66 used human intestinal epithelial cells (FHs 74 Int) with results in Table 8-4.
as §1, with “The cultured cells were” for “The cultured HUVEC cells were”, “group, NO-NSAID solvent control group.” for “group, NO-NSAID control group.”, “in Table 8-1 to Table 8-4,” for “in Table 7-1 and Table 7-2,”, “to Table 8-4, the solvent” for “and Table 7-2, the solvent”, “to Table 8-4, and according” for “and Table 7-2, and according”
as §2, §3

[2] = tested on: human oral keratinocytes (HOK); test: CCK-8 cell viability: alleviation of proliferative toxicity of anti-tumor agents on HOK (Table 8-2); format: cell-based; conditions: NO-NSAID 100 μM
Experimental: as §4
as §1, with “The cultured cells were” for “The cultured HUVEC cells were”, “group, NO-NSAID solvent control group.” for “group, NO-NSAID control group.”, “in Table 8-1 to Table 8-4,” for “in Table 7-1 and Table 7-2,”, “to Table 8-4, the solvent” for “and Table 7-2, the solvent”, “to Table 8-4, and according” for “and Table 7-2, and according”
as §2, §3

`CC(C(=O)OCCCO[N+](=O)[O-])c1ccc(-c2ccccc2)c(F)c1` (centres unmarked) [Compound A1] was tested, and the “NO-NSAID response rate % (average)” value (HUVEC cells; Lenvatinib (10 μM), NO-NSAID 1 μM) was 13%, the “NO-NSAID response rate % (average)” value (HUVEC cells; Lenvatinib (10 μM), NO-NSAID 100 μM) was 28% and the “NO-NSAID response rate % (average)” value (HUVEC cells; Lenvatinib (10 μM), NO-NSAID 500 μM) was 10%. The “NO-NSAID response rate % (average)” value (HUVEC cells; Olmutinib (10 μM), NO-NSAID 0.1 μM) was 25%, the “NO-NSAID response rate % (average)” value (HUVEC cells; Olmutinib (10 μM), NO-NSAID 1 μM) was 20% and the “NO-NSAID response rate % (average)” value (HUVEC cells; Olmutinib (10 μM), NO-NSAID 100 μM) was 37%. The “NO-NSAID response rate % (average)” value (HUVEC cells; Olmutinib (10 μM), NO-NSAID 500 μM) was 31%, the “NO-NSAID response rate % (average)” value (HUVEC cells; Regorafenib (5 μM), NO-NSAID 0.1 μM) was 21% and the “NO-NSAID response rate % (average)” value (HUVEC cells; Regorafenib (5 μM), NO-NSAID 1 μM) was 27%. For the same molecule, the “NO-NSAID response rate % (average)” value (HUVEC cells; Regorafenib (5 μM), NO-NSAID 100 μM) was 64%, the “NO-NSAID response rate % (average)” value (HUVEC cells; Regorafenib (5 μM), NO-NSAID 500 μM) was 42% and the “NO-NSAID response rate % (average)” value (HUVEC cells; Selumetinib (5 μM), NO-NSAID 0.1 μM) was 36%. For the same molecule, the “NO-NSAID response rate % (average)” value (HUVEC cells; Selumetinib (5 μM), NO-NSAID 1 μM) was 28%, the “NO-NSAID response rate % (average)” value (HUVEC cells; Selumetinib (5 μM), NO-NSAID 100 μM) was 51% and the “NO-NSAID response rate % (average)” value (HUVEC cells; Selumetinib (5 μM), NO-NSAID 500 μM) was 25%. For the same molecule, the “NO-NSAID response rate % (average)” value (HUVEC cells; Sorafenib (5 μM), NO-NSAID 0.1 μM) was 1%, the “NO-NSAID response rate % (average)” value (HUVEC cells; Sorafenib (5 μM), NO-NSAID 1 μM) was 14% and the “NO-NSAID response rate % (average)” value (HUVEC cells; Sorafenib (5 μM), NO-NSAID 100 μM) was 51%. For the same molecule, the “NO-NSAID response rate % (average)” value (HUVEC cells; Sorafenib (5 μM), NO-NSAID 500 μM) was 8%, the “NO-NSAID response rate % (average)” value (HUVEC cells; Sunitinib (5 μM), NO-NSAID 0.1 μM) was 19% and the “NO-NSAID response rate % (average)” value (HUVEC cells; Sunitinib (5 μM), NO-NSAID 1 μM) was 5%. The “NO-NSAID response rate % (average)” value (HUVEC cells; Sunitinib (5 μM), NO-NSAID 100 μM) was 11%, the “NO-NSAID response rate % (average)” value (HUVEC cells; Sunitinib (5 μM), NO-NSAID 500 μM) was 29% and the “Response rate % (average)” value ([1]; Afatinib (10 μM)) was 24%. The “Response rate % (average)” value ([1]; Cabozantinib (5 μM)) was 28%, the “Response rate % (average)” value ([1]; Dabrafenib (10 μM)) was 6% and the “Response rate % (average)” value ([1]; Everolimus (5 μM)) was 24%. The “Response rate % (average)” value ([1]; Infigratinib (15 μM)) was 23%, the “Response rate % (average)” value ([1]; Lapatinib (5 μM)) was 31% and the “Response rate % (average)” value ([1]; Lenvatinib (10 μM)) was 41%. For the same molecule, the “Response rate % (average)” value ([1]; Olmutinib (10 μM)) was 38%, the “Response rate % (average)” value ([1]; Regorafenib (5 μM)) was 34% and the “Response rate % (average)” value ([1]; Selumetinib (5 μM)) was 18%. For the same molecule, the “Response rate % (average)” value ([1]; Sorafenib (5 μM)) was 15%, the “Response rate % (average)” value ([1]; Sunitinib (5 μM)) was −2% and the “Response rate % (average)” value ([2]; Afatinib (10 μM)) was 41%. For the same molecule, the “Response rate % (average)” value ([2]; Cabozantinib (5 μM)) was 23%, the “Response rate % (average)” value ([2]; Dabrafenib (10 μM)) was 2% and the “Response rate % (average)” value ([2]; Everolimus (5 μM)) was −2%. For the same molecule, the “Response rate % (average)” value ([2]; Infigratinib (15 μM)) was 1%, the “Response rate % (average)” value ([2]; Lapatinib (5 μM)) was 12% and the “Response rate % (average)” value ([2]; Lenvatinib (10 μM)) was 38%. The “Response rate % (average)” value ([2]; Olmutinib (10 μM)) was 40%, the “Response rate % (average)” value ([2]; Regorafenib (5 μM)) was 22% and the “Response rate % (average)” value ([2]; Selumetinib (5 μM)) was 15%. The “Response rate % (average)” value ([2]; Sorafenib (5 μM)) was 22% and the “Response rate % (average)” value ([2]; Sunitinib (5 μM)) was 9%.
